Measured values taken from ChEMBL document CHEMBL5512602, “Unlocking the synthetic approaches and clinical application of approved small-molecule drugs for gastrointestinal cancer treatment: A comprehensive exploration” (Eur J Med Chem, 2023).

How the values were obtained:
[1] = test system: A-375; assay: Antiproliferative activity against human A-375 cells harboring BRAF V600E mutant assessed as reduction in cell growth; type: functional, cell-based
[2] = target: Vascular endothelial growth factor receptor 2 (Homo sapiens, UniProt P35968); assay: Inhibition of human recombinant VEGFR2 by FRET based Z-LYTE kinase assay
Vascular endothelial growth factor receptor 2, sequence (P35968 whole entry): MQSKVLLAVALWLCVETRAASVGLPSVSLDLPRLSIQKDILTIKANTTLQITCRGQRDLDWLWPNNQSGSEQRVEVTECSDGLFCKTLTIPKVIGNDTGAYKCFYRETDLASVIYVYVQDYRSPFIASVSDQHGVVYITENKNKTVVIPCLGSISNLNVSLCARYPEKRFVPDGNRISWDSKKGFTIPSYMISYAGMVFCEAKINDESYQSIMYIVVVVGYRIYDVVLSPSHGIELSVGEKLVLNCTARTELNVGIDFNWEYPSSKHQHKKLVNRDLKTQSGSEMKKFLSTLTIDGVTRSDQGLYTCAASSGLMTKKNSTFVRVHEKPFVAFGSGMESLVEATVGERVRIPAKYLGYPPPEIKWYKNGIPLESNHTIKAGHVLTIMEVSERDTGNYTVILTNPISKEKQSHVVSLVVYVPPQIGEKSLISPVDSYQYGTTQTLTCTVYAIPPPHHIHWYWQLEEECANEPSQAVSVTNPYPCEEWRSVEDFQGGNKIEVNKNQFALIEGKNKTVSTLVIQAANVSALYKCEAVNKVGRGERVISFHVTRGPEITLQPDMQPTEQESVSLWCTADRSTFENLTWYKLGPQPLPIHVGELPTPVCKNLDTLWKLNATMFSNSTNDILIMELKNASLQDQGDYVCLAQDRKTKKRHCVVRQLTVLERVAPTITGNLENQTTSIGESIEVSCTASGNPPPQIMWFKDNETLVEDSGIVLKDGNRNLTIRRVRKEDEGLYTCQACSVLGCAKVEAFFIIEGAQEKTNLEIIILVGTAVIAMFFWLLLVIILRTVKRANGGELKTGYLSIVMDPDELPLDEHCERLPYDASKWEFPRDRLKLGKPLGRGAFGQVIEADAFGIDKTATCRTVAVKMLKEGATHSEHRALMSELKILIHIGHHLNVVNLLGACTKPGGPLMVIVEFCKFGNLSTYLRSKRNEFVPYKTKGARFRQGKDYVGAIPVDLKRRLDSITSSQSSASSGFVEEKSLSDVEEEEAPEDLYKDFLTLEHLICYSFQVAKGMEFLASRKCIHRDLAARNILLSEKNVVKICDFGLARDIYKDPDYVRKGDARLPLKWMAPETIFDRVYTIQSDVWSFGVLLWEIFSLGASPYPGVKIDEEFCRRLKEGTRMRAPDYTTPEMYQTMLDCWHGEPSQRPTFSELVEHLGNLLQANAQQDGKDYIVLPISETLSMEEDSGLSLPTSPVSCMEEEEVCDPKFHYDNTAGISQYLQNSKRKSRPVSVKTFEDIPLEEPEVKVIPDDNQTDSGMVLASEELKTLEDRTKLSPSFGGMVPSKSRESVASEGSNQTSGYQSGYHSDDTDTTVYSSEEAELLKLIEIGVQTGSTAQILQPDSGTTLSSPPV

SMILES	EC50 [1]	IC50 [2]
COC(=O)N[C@@H](C)CNc1nccc(-c2cn(C(C)C)nc2-c2cc(Cl)cc(NS(C)(=O)=O)c2F)n1 [ENCORAFENIB]	4 nM	
CNC(=O)c1c(C)oc2cc(Oc3ncnc4cc(OC)c(OC)cc34)ccc12 [FRUQUINTINIB]		0.35 nM
